Usually IC50 stands for the point on the concentration scale where inhibition reaches its midpoint. A lower IC50 goes with greater potency.

The structures appear in SMILES notation. ≈ marks a conversion by molar mass, not a printed value. Where “and” joins values, the source holds several entries; their conditions need not be identical. Equal entries are not always repeated.

Series [1] relates to PDC-3. The arrangement: method as in earlier work. The conditions noted are these: ref [2]; cited from earlier work.
In series [2] the target is T1, AmpC SBL from Escherichia coli (AmpCEC) (Escherichia coli, UniProt P00811).
T1 construct: made in house
The experiment in a line: AmpCEC inhibition pIC50 with varied preincubation time and pH (FC-5). It is filed as biochemical.

In series [3] the test system is ADC-7. On the set-up: method as in earlier work. The conditions noted are these: ref [2], cited from earlier work; for Ki: read-out: Kiapp.
Series [4] concerns DH5α Escherichia coli (wt). The series can be described thus: MIC by broth microdilution, wild-type strain. It is filed as cell-based. The conditions noted are these: compound alone, read-out: Minimum Inhibitory Concentration. Here is the method:
(§1) MICs were determined by broth microdilutions in triplicate and interpreted using published guidelines described by the CLSI. […] DBOs were also tested as the sole administered antimicrobial (0.25 to 256 μg ml^−1) against both strains (Table S5).
On the technique in general: Broth dilution looks for growth in wells or tubes with falling amounts of substance.

The subject of series [5] is E. coli ATCC 25922. The arrangement: method as in PMID 30861342. The following applies: E. coli ATCC 25922, compound alone; cited from earlier work.
The test system of series [6] is DH5α E. coli containing the pAD7-AmpCEC plasmid. The series can be described thus: MIC by broth microdilution, AmpCEC-producing strain. The class given is cell-based, Escherichia coli. The conditions noted are these: for MIC: Escherichia coli, read-out: Minimum Inhibitory Concentration, compound alone, DH5α pAD7 AmpCEC. On the procedure: as §1
Series [7] concerns the target T1, AmpC SBL from Escherichia coli (AmpCEC). The series can be described thus: Steady-state competitive inhibition kinetics of AmpCEC with fluorescent substrate FC-5 (kobs, Kiapp, k2/K). The class given is biochemical. On the procedure: (§2) Assays were performed and analyzed as described previously ([34]). In summary, assays in the presence of inhibitors were carried out under steady-state conditions monitoring hydrolysis of the fluorescent substrate FC-5 ([33]) in 100 mM phosphate buffer, pH 7.5, supplemented with 0.01% (vol/vol) Triton X-100. Fluorescence was measured using a PHERAstar (BMG Labtech) plate reader, recording emission spectra at an excitation wavelength of 380 nm and emission wavelength of 460 nm. […] The pseudo first-order rate constant, kobs, and the apparent inhibition constant, Kiapp, were obtained by assaying 100 nM AmpCEC with 5 μM FC-5 in the presence of various concentrations of the inhibitor. Reactions were initiated by addition of AmpCEC and immediately monitored continuously over 30 s. […] The second-order rate constant (k2/K) was obtained from linear regression of measured kobs values against inhibitor concentrations (see Fig. S3b in the supplemental material) and corrected by the Michaelis constant (Km) and concentration of the substrate. Kiapps ([50]) were determined by linear regression of the reciprocals of the initial rates against inhibitor concentration (Fig. S3a) and corrected using the experimentally determined substrate Km and substrate concentration. Inhibitor off rates (koff) were measured using the jump-dilution method ([51]); thus, AmpCEC (1 μM) was incubated with the respective inhibitor (10 μM) for 30 min at room temperature and diluted 100,000-fold in the assay buffer to a final enzyme concentration of 10 pM and then immediately assayed using 25 μM (final concentration) FC-5. Off rates were determined from exponential regression in relation to turnover of no enzyme and no inhibitor controls (Fig. S3c). Half-lives of the enzyme-inhibitor complexes were directly calculated from the measured koff values.
Figure S1: Progression curves used in kobs determinations. AmpCEC (100 nM) was assayed using FC-5 (5 μM)
Reactions were initiated by addition of
AmpCEC and immediately monitored, as described in Materials and Methods. Buffer: 50 mM phosphate buffer, pH
7.5 and 0.01% (v/v) Triton X-100. Curves were fitted to Equation 5.
(A) Determination of Kiapp values
for AmpCEC inhibition by DBOs. […]

Series [8] shares this target. The experiment in a line: AmpCEC inhibition pIC50 with varied preincubation time and pH (FC-5). The class given is biochemical. On the procedure: as §2
pre-incubated with the inhibitors for the indicated times at room temperature and assayed using 5 μM FC-5 [1].
(1 picture or pasted object on this page, not shown here)
AmpCEC (500 pM) was preincubated
with the inhibitors for the indicated times at room temperature, then assayed using 5 μM FC-5 [1]. Buffer: 50 mM
regression (Figure S2), as described in the Materials and Methods.
This is another data set of the same source.

Series [9] deals with PDC-1. The arrangement: method as in earlier work. The following applies: ref [2]; cited from earlier work.
Series [10] concerns the target T1, AmpC SBL from Escherichia coli (AmpCEC). The experiment in a line: Jump-dilution off-rate of AmpCEC-DBO carbamoyl complexes (FC-5). The class given is biochemical. The following applies: jump dilution 100,000-fold; 1 μM AmpCEC preincubated with 10 μM DBO 30 min at room temperature; 25 μM FC-5. Here is the method:
as §2, with “Inhibitor off rates (koff) were measured using the jump-dilution method ([51]); thus, AmpCEC (1 μM) was incubated with the respective inhibitor (10 μM) for 30 min at room temperature and diluted 100,000-fold in the assay buffer to a final enzyme concentration of 10 pM and then immediately assayed using 25 μM (final concentration) FC-5.” left out, “Half-lives of the enzyme-inhibitor complexes were directly calculated from the measured koff values.” left out

Setting [11] is: pIC50, 0 min preincubation, pH 7.0.
The mark [12] stands for this setting: pIC50, 0 min preincubation, pH 8.0.
The mark [13] stands for this setting: pIC50, 10 min preincubation, pH 7.0.
The mark [14] stands for this setting: pIC50, 10 min preincubation, pH 8.0.
The mark [15] stands for this setting: pIC50, 30 min preincubation, pH 7.0.
[16] abbreviates: pIC50, 60 min preincubation, pH 7.0.
The mark [17] stands for this setting: pIC50, 60 min preincubation, pH 8.0.
Setting [18] is: pIC50, 360 min preincubation, pH 7.0.
[19] abbreviates: pIC50, 360 min preincubation, pH 8.0.
Setting [20] is: [DBO] 5.00 µM, 100 nM AmpCEC, 5 μM FC-5.
Where [21] appears, read: pIC50, 0 min preincubation, pH 7.5, 500 pM AmpCEC, 5 μM FC-5.
The mark [22] stands for this setting: pIC50, 10 min preincubation, pH 7.5.
[23] abbreviates: pIC50, 30 min preincubation, pH 7.5.
[24] abbreviates: pIC50, 60 min preincubation, pH 7.5.
Where [25] appears, read: pIC50, 360 min preincubation, pH 7.5, 500 pM AmpCEC, 5 μM FC-5.

T1 sequence (P00811 20-377): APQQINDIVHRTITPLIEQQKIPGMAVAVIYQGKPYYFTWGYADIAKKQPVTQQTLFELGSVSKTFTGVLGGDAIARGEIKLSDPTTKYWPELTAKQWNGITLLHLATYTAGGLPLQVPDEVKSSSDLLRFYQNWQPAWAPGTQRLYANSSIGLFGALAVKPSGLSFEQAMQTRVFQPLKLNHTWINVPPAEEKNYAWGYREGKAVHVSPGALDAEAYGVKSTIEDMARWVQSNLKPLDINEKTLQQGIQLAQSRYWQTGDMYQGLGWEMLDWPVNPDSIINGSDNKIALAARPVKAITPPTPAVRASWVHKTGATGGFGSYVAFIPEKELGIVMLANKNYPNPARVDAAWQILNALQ

With `O=C(NC1CCNCC1)[C@@H]1CC[C@@H]2CN1C(=O)N2OS(=O)(=O)O` [REL, relebactam], the k2/K in series [1] is reported as 46 ± 5 (M-1s-1) x 10 3; in series [3], 7.8 ± 0.8 (M-1s-1) x 10 3. Besides, the t1/2 is 13 ± 4 min in [1] and 39 ± 4 min in series [3]. Moreover, the IC50 is 166 nM in series [2] (setting [11]); 158 nM in [2] (setting [12]); 115 nM in series [2] (setting [13]); 63.1 nM in series [2] (setting [14]); 49 nM in series [2] (setting [15]); 17.4 nM in series [2] (setting [16]). For the same molecule, the IC50 in series [2] (setting [17]) was 13.2 nM; in series [2] (setting [18]), 4.17 nM; in series [2] (setting [19]) it was 10.5 nM; in series [8] (setting [21]), 245 nM; in series [8] (setting [22]) it was 107 nM; in series [8] (setting [23]), 34.7 nM. Besides, the results for the IC50 in series [8] (setting [24]) and in [8] (setting [25]) were 20.4 nM and 3.89 nM, respectively. The values for the MIC in [4], in [5] and in series [6] were 128 µg/mL (≈ 367 µM), more than 64 µg/mL and 128 µg/mL (≈ 367 µM), respectively. Further, the Ki in series [7] was 7100 ± 300 nM. The kobs in series [7] ([DBO] 0.04 µM) is given as 0.134 ± 0.007; in series [7] ([DBO] 0.16 µM), 0.138 ± 0.003; in [7] ([DBO] 0.31 µM), 0.136 ± 0.002; in [7] ([DBO] 0.63 µM), 0.143 ± 0.002; in [7] ([DBO] 1.25 µM), 0.167 ± 0.005; in series [7] (setting [20]) it was 0.314 ± 0.012.

Consider `NC(=O)[C@@H]1CC[C@@H]2CN1C(=O)N2OS(=O)(=O)O` [AVI, avibactam], for which the k2/K is given as 29 (M-1s-1) x 10 3 in [1], 3.9 ± 0.4 (M-1s-1) x 10 3 in series [3] and 2900 (M-1s-1) x 10 3 in series [9]. Besides, the t1/2 is on record as 14 min in [1], 33 ± 5 min in series [3] and 6 min in [9]. Also, in series [3], the Ki was 19000 ± 2000 nM. Besides, the MIC in series [4], in [5] and in [6] was 16 µg/mL (≈ 60.3 µM) each time. For the same molecule, the kobs in [7] ([DBO] 0.04 µM) worked out at 0.135 ± 0.002; in series [7] ([DBO] 0.16 µM), 0.134 ± 0.001; in series [7] ([DBO] 0.31 µM) it was 0.135 ± 0.006; in [7] ([DBO] 0.63 µM), 0.144 ± 0.002; in series [7] ([DBO] 1.25 µM) it was 0.168 ± 0.008; in [7] (setting [20]), 0.305 ± 0.004.

For the molecule `NCCONC(=O)[C@@H]1CC[C@@H]2CN1C(=O)N2OS(=O)(=O)O` [NAC, nacubactam], the IC50 in series [2] (setting [11]) is 200 nM; in series [2] (setting [12]), 141 nM; in series [2] (setting [13]) it was 91.2 nM; in series [2] (setting [14]), 58.9 nM; in series [2] (setting [15]), 31.6 nM; in series [2] (setting [16]) it was 16.2 nM. In addition, the half-maximal inhibitory concentration (IC50) in series [2] (setting [17]) was 15.1 nM; in series [2] (setting [18]) it was 6.46 nM; in [2] (setting [19]), 5.13 nM; in series [8] (setting [21]), 178 nM; in series [8] (setting [22]), 66.1 nM; in series [8] (setting [23]), 34.7 nM. Moreover, the figures for the concentration for half-maximal inhibition (IC50) in [8] (setting [24]) and in series [8] (setting [25]) were 13.8 nM and 2.95 nM, respectively. In addition, the “koff (decarbamoylation rate)” value in series [10] is 0.049 s^−1, ×10^−3 and 0.049 ± 0.01 s^−1, ×10^−3. Besides, the MIC was 2 µg/mL (≈ 6.17 µM) in series [4], 2 µg/mL (≈ 6.17 µM) in series [5] and 4 µg/mL (≈ 12.3 µM) in series [6]. Besides, the “Minimum Inhibitory Concentration” value in series [6] (compound alone, DH5α pAD7 AmpCEC) amounted to 2 µg/mL. Moreover, the Ki in [7] came out at 5000 ± 100 nM. Further, the kobs in [7] ([DBO] 0.04 µM) was determined as 0.142 ± 0.003; in series [7] ([DBO] 0.16 µM), 0.142 ± 0.003; in series [7] ([DBO] 0.31 µM), 0.153 ± 0.005; in series [7] ([DBO] 0.63 µM) it was 0.153 ± 0.002; in series [7] ([DBO] 1.25 µM), 0.185 ± 0.003; in series [7] (setting [20]), 0.393 ± 0.008. In addition, the kinact/KI in series [7] (pH 7.5, read-out: k2/K (carbamoylation rate)) worked out at 52000 ± 2000 M⁻¹ s⁻¹.

As for `O=C(NNC(=O)[C@@H]1CC[C@@H]2CN1C(=O)N2OS(=O)(=O)O)[C@@H]1CCCNC1` [ZID, zidebactam], the k2/K in series [1] is 480 ± 70 (M-1s-1) x 10 3; in series [3], 35 ± 4 (M-1s-1) x 10 3. In addition, the figures for the t1/2 in series [1] and in series [3] were 3 ± 0.4 min and 11 ± 1 min, respectively. The half-maximal inhibitory concentration (IC50) in series [2] (setting [11]) was 34.7 nM; in [2] (setting [12]), 17 nM; in [2] (setting [13]), 16.6 nM; in series [2] (setting [14]), 8.13 nM; in series [2] (setting [15]), 8.71 nM; in series [2] (setting [16]), 5.75 nM. Further, the IC50 in [2] (setting [17]) is 3.89 nM; in series [2] (setting [18]), 5.25 nM; in [2] (setting [19]), 4.37 nM; in series [8] (setting [21]), 25.1 nM; in [8] (setting [22]) it was 11 nM; in series [8] (setting [23]), 7.59 nM. Further, the IC50 in series [8] (setting [24]) is 4.68 nM; in series [8] (setting [25]), 3.47 nM. Besides, the Ki in [3] was 2300 ± 300 nM; in [7], 690 ± 40 nM. The MIC was not above 0.25 µg/mL in series [4], 0.125 µg/mL (≈ 0.319 µM) in series [5] and not above 0.25 µg/mL in series [6]. The kobs stood at 0.150 ± 0.002 in series [7] ([DBO] 0.04 µM), 0.183 ± 0.002 in series [7] ([DBO] 0.16 µM), 0.246 ± 0.002 in series [7] ([DBO] 0.31 µM) and 0.357 ± 0.003 in series [7] ([DBO] 0.63 µM).

Turning to `CC(C)(O/N=C(\C(=O)N[C@@H]1C(=O)N2C(C(=O)[O-])=C(C[n+]3ccccc3)CS[C@H]12)c1csc(N)n1)C(=O)O` [CAZ, ceftazidime], the MIC in [4] was determined as 1 µg/mL (≈ 1.83 µM); in series [6] it was 256 µg/mL (≈ 468 µM).

These data come from publication PMC7849013, “Structural Investigations of the Inhibition of Escherichia coli AmpC β-Lactamase by Diazabicyclooctanes” (Antimicrobial Agents and Chemotherapy, 2021).
